The text below walks through data of patent publication US7666898B2, “Multivalent indole compounds and use thereof as phospholipase-A2 inhibitors” (Ilypsa, Inc., priority 2005, dated 2010).

Read-outs that look alike come from different tables or passages of the source.

For series [1], the target named is porcine pancreatic secreted PLA2 (pps PLA2) (Sus scrofa, UniProt P00592). To be noted: reported literature data; cited from earlier work.
Series [2] addresses T1, human non-pancreatic PLA2 (hnp PLA2) (Homo sapiens, UniProt P14555).
T1 sequence (P14555 21-144): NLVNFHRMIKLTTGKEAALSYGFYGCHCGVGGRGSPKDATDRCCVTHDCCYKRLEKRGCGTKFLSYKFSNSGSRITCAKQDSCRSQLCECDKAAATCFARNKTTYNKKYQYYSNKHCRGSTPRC
To be noted: reported literature data; cited from earlier work.

Series [3] deals with human pancreatic secreted PLA2 (hps PLA2) (Homo sapiens, UniProt P04054). Particulars: reported literature data; cited from earlier work.
Sequence of human pancreatic secreted PLA2 (hps PLA2) (P04054 23-148): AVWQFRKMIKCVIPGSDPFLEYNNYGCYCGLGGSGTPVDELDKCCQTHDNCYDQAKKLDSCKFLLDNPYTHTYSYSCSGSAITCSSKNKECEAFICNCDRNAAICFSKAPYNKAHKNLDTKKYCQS
Series [4] deals with T2, human group 1B PLA2 (hps PLA2) (Homo sapiens, UniProt P04054).
T2 construct: made in house; host or cells: E. coli
T2 sequence (P04054 23-148): as above
The series can be described thus: Fluorimetric PLA2 inhibition assay, human (Example 8). Format: biochemical.
Source text: (§1) In this example, a fluorimetric assay procedure was used to evaluate the indole and indole-related compounds of the invention as inhibitors of group 1B phospholipase A2 (PLA2) from human, mouse and porcine.
(§2) In general, this assay used a phosphatidylmethanol substrate with a pyrene fluorophore on the terminal end of the sn-2 fatty acyl chain. Without being bound by theory, close proximity of the pyrenes from neighboring phospholipids in a phospholipid vesicle caused the spectral properties to change relative to that of monomeric pyrene. Bovine serum albumin was present in the aqueous phase and captured the pyrene fatty acid when it is liberated from the glycerol backbone owing to the PLA2-catalyzed reaction. […] The effect of a given inhibitor and inhibitor concentration on human, mouse and porcine phospholipase was determined.
(§3) Recombinant human and mouse group 1B PLA2 were cloned and expressed in E. coli as insoluble inclusion bodies. The inclusion bodies were isolated and purified by sonicating cell pellet in lysis buffer (50 mM Tris-HCl pH 7.0, 250 mM NaCl, 0.5% Triton 100), centrifugation at 12,000×g, and washing three times in washing buffer (20 mM Tris-HCl pH 7.0, 250 mM NaCl, 0.5% Triton 100). Then the inclusion bodies were dissolved in dissolving buffer (50 mM Tris-HCl pH 7.0, 250 mM NaCl, 6 M Guanidine-HCl, 1 mM DTT) and dialyzed four times against 10 volumes of refolding buffer (20 mM Tris-HCl pH 7.0, 250 mM NaCl, 0.5M Guanidine-HCl, 5% (w/w) Glycerol, 2 mM reduced glutathione and 0.4 mM oxidized glutathione) at 4° C. The correctly refolded proteins were concentrated using Amicon Stirred cell under nitrogen pressure (<70 psi) and dialyzed against 10 volumes of 50 mM Tris-HCl pH 7.0, 250 mM NaCl and 5% (w/w) glycerol. Human and mouse group 1B PLA2 were further purified by High S ion exchange and gel filtration columns.
(§4) The following reagents were prepared: • 1. PPyrPM stock solution (1 mg/ml) in toluene:isopropanol (1:1) • 2. […]
(§5) The following procedure was performed to evaluate the inhibitory potency of the evaluated compounds. • 1. […]

The target in series [5] is Porcine group 1 B phospholipase A2 (pps PLA2) (Sus scrofa, UniProt P00592). Nature of the series: Fluorimetric PLA2 inhibition assay, porcine (Example 8).
Sequence of Porcine group 1 B phospholipase A2 (pps PLA2) (P00592 23-146): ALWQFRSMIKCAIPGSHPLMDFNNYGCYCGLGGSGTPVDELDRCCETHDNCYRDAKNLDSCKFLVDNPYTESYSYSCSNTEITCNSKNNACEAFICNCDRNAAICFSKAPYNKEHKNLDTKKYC
Source text: as §1, §2
The following reagents and equipments were obtained from commercial vendors: • 1. Porcine group 1 B phospholipase A2 • 2. 1-hexadecanoyl-2-(1-pyrenedecanoyl)-sn-glycero-3-phosphomethanol (PPyrPM) • 3. Bovine serum albumin (BSA, fatty acid free) • 4. 2-Amino-2-(hydroxymethyl)-1,3-propanediol, hydrochloride (Tris-HCl) • 5. […]
as §5
Evaluated compounds were tested in duplicate and their values were averaged to plot the inhibition curve and calculate the IC50. […]
The target in series [6] is T3, mouse group 1B PLA2 (mps PLA2) (Mus musculus, UniProt Q9Z0Y2).
T3 construct: made in house; host or cells: E. coli
T3 sequence (Q9Z0Y2 23-146): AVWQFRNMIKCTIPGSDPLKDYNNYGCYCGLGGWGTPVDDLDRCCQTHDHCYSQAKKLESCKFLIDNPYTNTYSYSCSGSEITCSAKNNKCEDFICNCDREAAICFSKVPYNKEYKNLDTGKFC
The series can be described thus: Fluorimetric PLA2 inhibition assay, mouse (Example 8). The class given is biochemical.
Source text: as §1, §2, §3, §4, §5

The target of the next series is mouse PLA2 IB enzyme (Mus musculus, UniProt Q9Z0Y2). Particulars: pyrene substrate release from vesicles (Singer, Ghomashchi et al. 2002); read-out: IC50 versus the mouse PLA2 IB enzyme; cited from earlier work.
Sequence of mouse PLA2 IB enzyme (Q9Z0Y2 23-146): as above
A short description of series [7]: Pharmokinetic study of ILY-4001 (Example 6C). To be noted: 30 mg/kg oral. The class given is in vivo, mice. The method, then:
Bioavailability was calculated as a ratio of AUC-oral/AUC-intravenous (IV). To determine this ratio, a first set of subject animals were given a measured intravenous (IV) dose of ILY-4001, followed by a determination of ILY-4001 levels in the blood at various time points after administration (e.g., 5 minutes through 24 hours). Another second set of animals was similarly dosed using oral administration, with blood levels of ILY-4001 determined at various time points after administration (e.g., 30 minutes through 24 hours). The level of ILY-4001 in systemic circulation were determined by generally accepted methods (for example as described in Evans, G., A Handbook of Bioanalysis and Drug Metabolism. Boca Raton, CRC Press (2004)). Specifically, […]/mass spectrometry/mass spectrometry (LC/MS/MS) analytical methods were used to quantitate plasma concentrations of ILY-4001 after oral and intravenous administration. Pharmacokinetic parameters that were measured include Cmax, AUC, tmax, t1/2, and F (bioavailability).
In this procedure, ILY-4001 was dosed at 3 mg/kg IV and 30 mg/kg oral. […] This indicated about a 72% level of non-absorption of ILY-4001 from the GI tract into systemic circulation.

In series [8] the test system is Caco-2 cells. Nature of the series: In-vitro Caco-2 permeability study (Example 6B). To be noted: Caco-2 monolayers, apical to basolateral. (Caco-2 cells form a polarised layer with tight junctions and transporters.)
Procedure: (§6) Briefly, the human colon adenocarcinoma cell line, Caco-2, was used to model intestinal drug absorption.
(§7) In order to determine the compound permeability, Caco-2 cells (ATCC) were seeded into 24-well transwells (Costar) at a density of 6×10^4 cells/cm^2. Monolayers were grown and differentiated in MEM (Mediatech) supplemented with 20% FBS, 100 U/ml penicillin, and 100 ug/ml streptomycin at 37° C., 95% humidity, 95% air, and 5% CO2. The culture medium was refreshed every 48 hours. After 21 days, the cells were washed in transport buffer made up of HBSS with HEPES and the monolayer integrity was evaluated by measuring the trans-epithelial electrical resistance (TEER) of each well. […]
(§8) 150 ul samples were collected for LC/MS analysis from the basolateral well at 15 min, 30 min, 45 min, 1 hr, 3 hr, and 6 hr time points; replacing the volume with pre-warmed transport buffer after each sampling. The apparent permeabilities in cm/s were calculated based on the equation: Papp=(dQ/dt)×(1/C0)×(1/A) where dQ/dt is the permeability rate corrected for the sampling volumes over time, C0 is the initial concentration, and A is the surface area of the monolayer (0.32 cm^2). At the end of the experiment, TEER measurements were retaken and wells with readings below 350 ohm-cm^2 indicated diminished monolayer integrity such that the data from these wells were not valid for analysis.
A short description of a further series: Stability at low pH. The class given is physicochemical.
Another series deals with human PLA2 IB enzyme (Homo sapiens, UniProt P04054). To be noted: pyrene substrate release from vesicles (Singer, Ghomashchi et al. 2002); read-out: IC50 versus the human PLA2 IB enzyme; cited from earlier work.
Sequence of human PLA2 IB enzyme (P04054 23-148): as the sequence (P04054 23-148) above
Series [9] concerns C57BL/6 wild-type mice on high fat/high sucrose diabetogenic diet. The series can be described thus: In-vivo evaluation in mice on high fat/high sucrose diabetogenic diet (Example 5). Also on record: species or system mouse. Particulars: for fasting glucose levels: low dose 25 mg/kg/day. Here is the method: ILY-4001 (FIG. 2) was evaluated as a PLA2 IB inhibitor in a set of experiments using wild-type mice and genetically deficient PLA2 (−/−) mice (also referred to herein as PLA2 knock-out (KO) mice). In these experiments, wild-type and PLA2 (−/−) mice were maintained on a high fat/high sucrose diet, details of which are described below.
Briefly, four groups were set up, each having six mice. Three of the groups included six wild-type PLA2 (+/+) mice in each group (eighteen mice total), and one of the groups included six genetically deficient PLA2 (−/−) mice. One of the wild-type groups was used as a wild-type control group, and was not treated with ILY-4001. The other two wild-type groups were treated with ILY-4001—one group at a lower dose (indicated as “L” in Table 1) of 25 mg/kg/day, and the other at a higher dose (indicated as “H” in Table 1) of 90 mg/kg/day. The group comprising the PLA2 (−/−) mice was used as a positive control group.
The experimental protocol used in this study was as follows. The four groups of mice, including wild type and isogenic PLA2 (−/−) C57BL/J mice were acclimated for three days on a low fat/low carbohydrate diet. After the three day acclimation phase, the animals were fasted overnight and serum samples taken to establish baseline plasma cholesterol, triglyceride, and glucose levels, along with baseline body weight. The mice in each of the treatment groups were then fed a high fat/high sucrose diabetogenic diet (Research Diets D12331). 1000 g of the high fat/high sucrose D12331 diet was composed of casein (228 g), DL-methionine (2 g), maltodextrin 10 (170 g), sucrose (175 g), soybean oil (25 g), hydrogenated coconut oil (333.5 g), mineral mix S10001 (40 g), sodium bicarbonate (10.5 g), potassium citrate (4 g), vitamin mix V10001 (10 g), and choline bitartrate (2 g). This diet was supplemented with ILY-4001 treatments such that the average daily dose of the compound ingested by a 25 g mouse was: 0 mg/kg/day (wild-type control group and PLA2 (−/−) control group); 25 mg/kg/day (low-dose wild-type treatment group), or 90 mg/kg/day (high-dose wild-type treatment group). The animals were maintained on the high fat/high sucrose diet, with the designated ILY-4001 supplementation, for a period of ten weeks.
Body weight measurements were taken for all animals in all treatment and control groups at the beginning of the treatment period and at 4 weeks and 10 weeks after initiation of the study. (See Example 5A). Blood draws were also taken at the beginning of the treatment period (baseline) and at 4 weeks and 10 weeks after initiation of the study, in order to determine fasting glucose (See Example 5B). Cholesterol and triglyceride levels were determined from blood draws taken at the beginning of the treatment (baseline) and at ten weeks. (See Example 5C).

Series [10] in a line: Bioavailability study of Compound 5-24 (Example 9). Format: in vivo, male CD-1 Mus Musculus mice. Particulars: oral ˜30 mg/kg vs IV ˜3 mg/kg, mice. Here is the method: Bioavailability was determined for Compound 5-24 (ILY-V-24) as follows. Generally, the bioavailability was calculated by comparing a timecourse of the concentration of the test compound in the serum of mice after an intra-venous (IV) dosing, versus the timecourse of the concertration following an oral dosing of the test compound. The IV dose was ˜3 mg/kg, the oral dose was ˜30 mg/kg.
Oral Formulation. The oral formulation was prepared as follows. To sterile flask, 90 ml of sterile Milli-Q water was added. 9 ml of PEG-400 was added (final concentration of 9%). 50 ul of Tween-80 was added (final concentration of 0.05%). 0.9 g of CMC was weighed and added (final concentration of 0.9% w/v). […]
Study Design. […] On study day 0, all the animals were weighed, dosages were calculated and the animals were dosed by oral route (PO) or (IV) as outlined below in Table 7. […]
Calculations. Bioavailabilty was calculated as follows. Individual doses were calculated based on an average of body weights taken on the day of dosing. Serum concentrations of test compound, as well as the actual concentration of dosing solutions, were measured using 2-dimensional Mass Spectrophotometry after Liquid Chromatography (LC MS/MS). […]

Series [11] relates to Caco-2 cells.
Procedure: as §6, §7, §8
[12] abbreviates: low and high doses (25 and 90 mg/kg/day), 10 weeks.

Sequence of porcine pancreatic secreted PLA2 (pps PLA2) (P00592 23-146): as the sequence (P00592 23-146) above

One may read the IC50 as the concentration that gives 50% inhibition. Turning to `Cc1c(CC(N)=O)c2cc(OCc3ccc(C(=O)O)cc3)ccc2n1Cc1ccccc1`, the IC50 in [1] was 7.5 µM; in series [2], 0.147 ± 0.009 µM; in series [3], 22.5 µM.

`CCc1c(C(=O)C(N)=O)c2c(OCC(=O)O)cccc2n1Cc1ccccc1-c1ccccc1`: the IC50 in series [2] was 0.004 ± 0.001 µM; in [3], 0.062 µM.

As to “2-(3-Aminooxalyl-1-{12-[3-aminooxalyl-4-(1-carboxy-2-methyl-propoxy)-2-methyl-indol-1-yl]-dodecyl}-2-methyl-1H-indol-4-yloxy)-3-methyl-butyric acid [ILY-v-44]”, the concentration for half-maximal inhibition (IC50) worked out at 0.28 µM in series [4] (PPyrPM vesicles, 37° C., read-out: ILYPSA IC50 (μM) hps PLA2); 0.05 µM in [5] (read-out: ILYPSA IC50 (μM) pps PLA2, PPyrPM vesicles, 37° C.); 0.48 µM in [6] (PPyrPM vesicles, 37° C., read-out: ILYPSA IC50 (μM) mps PLA2).

`Cc1c(C(=O)C(N)=O)c2c(OCC(=O)O)cccc2n1Cc1ccccc1-c1ccccc1` [ILY-4001, 2-(3-(2-amino-2-oxoacetyl)-1-(biphenyl-2-ylmethyl)-2-methyl-1H-indol-4-yloxy)acetic acid]: the IC50 on mouse PLA2 IB enzyme is around 150 nM; at human PLA2 IB enzyme, around 200 nM. For the same molecule, the “level of non-absorption from the GI tract into systemic circulation” value in series [7] is on record as around 72%. The “apparent permeability (cm/s)” value in the series with Caco-2 cells [8] is recorded as “around 1.66×10^−7 cm/s”. Besides, the “stability at low pH” value in “Stability at low pH” was “stable at low pH”. In addition, the body weight gain result in series [9] (25 mg/kg/d and 90 mg/kg/d in diet, week 4 and week 10, vs wild-type control group) was “significantly reduced body weight gains”. Moreover, the “plasma levels of cholesterol” value in series [9] (setting [12]) is on record as “substantially reduced”. For the same molecule, the “plasma levels of triglycerides” value in [9] (setting [12]) is “substantially reduced”. The fasting glucose levels result in [9] (week four) is listed as “moderately beneficial effect”; in [9] (week ten) it was “a beneficial effect was not observed”.

`Cc1c(C(=O)C(N)=O)c2c(OCC(=O)O)cccc2n1CCCCCCCCSCCCCCCCCSCCCCCCCCn1c(C)c(C(=O)C(N)=O)c2c(OCC(=O)O)cccc21` [ILY-v-24, 2,2′-(1,1′-(8,8′-(Octane-1,8-diylbis(sulfanediyl))bis(octane-8,1-diyl))bis(3-(2-amino-2-oxoacetyl)-2-methyl-1H-indole-4,1-diyl))bis(oxy)diacetic acid]: the bioavailability in series [10] is 4-8%.

“(3-Aminooxalyl-1-benzyl-2-methyl-1H-indol-4-yloxy)-phenyl-acetic acid [ILY-IV-32]”: the “ILYPSA % inhibition at 15 μM hps PLA2” value in series [4] (15 μM compound) was 41.73%. Further, the “ILYPSA % inhibition at 15 μM pps PLA2” value in [5] (15 μM compound) is on record as 38.5%. For the same molecule, the “ILYPSA % inhibition at 15 μM mps PLA2” value in series [6] (15 μM compound) is 47.49%.

For the molecule Lucifer Yellow, the “apparent permeability (cm/s)” value with Caco-2 cells [11] is recorded as “around 2.82×10^−7+/−0.37×10^−7 cm/s”.
